# Tests used:
# poly-ADP-ribose (PAR) = assay: Western blot of PAR levels in xenograft tumors; assay type: in vivo, mouse; conditions: 24 h post treatment (FIGS. 9A-9B)
# Experimental: Western Blot analyses. Western blot analysis of protein levels was conducted by loading 30 μg of whole cell lysate onto a 4-20% polyacrylamide gel. Total protein was transferred to a nitrocellulose membrane. After blocking with 5% milk, membranes were incubated with primary antibodies. Antibodies used were: Rabbit monoclonal anti-Fumarase (D9C5,Cell Signaling Technologies) 1:1000 in 5% BSA, mouse monoclonal anti-SDHB (21A11AE7, Abcam) 1:1000 in % 5 milk, mouse monoclonal anti-Vinculin (SPM227, Abcam) 1:1000 in 5% milk, rabbit polyclonal anti-Histone 3 Lysine 36 trimethyl (9050, Abcam) 1:500 in 5% BSA, anti-Histone 3 Lysine 9 trimethyl (D4W1U, Cell Signaling Technologies) 1:1000 in 5% BSA, mouse monoclonal anti-Beta Actin (60008, Protein Tech) 1:5000 5% milk, rabbit Polyclonal anti-Histone H3 (ab1791, Abcam 1:5000 5% BSA), rabbit Polyclonal anti-PAR (4336-BPC-100, Trevigen) 1:5000 5% BSA, mouse monoclonal anti-GAPDH (60004 Protein Tech) 1:5000 5% milk, mouse monoclonal anti-BRCA2 (ab1, Millipore, 1:1000 5% Milk), mouse monoclonal anti-BRCA1 (D-9, Santa Cruz, 1:200 5% milk), mouse monoclonal anti-RAD51(14B4 Novus bio, 1:1000 5% milk). Patient sample blots were reprobed. […] Doxycycline induced knockdown was monitored by western blot as well as by RFP fluorescence from the internal and dox-inducible reporter on the TRIPZ construct. […]
# HEK293FT and YUNK1 cells = assay: Clonogenic survival assay, PARP inhibitors, knockdown or metabolite-treated cells; assay type: cell-based, human; conditions: knockdown of SDHB and FH or exogenous dimethyl-fumarate or succinate (FIGS. 4A-4B, 8E-8I)
structure (smiles),measurement,setting,value
"Cn1ncnc1[C@H]1c2n[nH]c(=O)c3cc(F)cc(c23)N[C@@H]1c1ccc(F)cc1 [BMN-673, BMN-673 (Talazoparib)]","PAR levels by western blot, SDHB knockdown vs shCTRL tumors",poly-ADP-ribose (PAR),reduced to the same extent
same,"sensitivity to the PARP inhibitor, clonogenic survival",HEK293FT and YUNK1 cells,dramatic sensitivity

# Reference: patent publication US11311538B2, “Compositions and methods for targeting cancers” (YALE UNIVERSITY, priority 2018, dated 2022)
